Measured values published in patent US11377441B2, “Covalent inhibitors of KRAS” (Araxes Pharma LLC, priority 2017, dated 2022).

target: T1, KRAS G12C 1-169, his-tagged protein, GDP-loaded (Homo sapiens, UniProt P01116, G12C); assay: Biochemical assay: covalent modification of KRAS G12C measured by mass spectrometry (RapidFire/TOF or Q-Exactive); assay type: binding; settings: covalent binding to (modification of) KRAS G12C after a ten minute incubation period
T1 construct: KRAS G12C 1-169, his-tagged protein, GDP-loaded
Summary of the method: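 GDP-loaded KRAS G12C 1-169 (his-tagged) at 2 μM or 0.5 μM in 20 mM Hepes, 150 mM NaCl, 1 mM MgCl2, incubated with compound at 100, 30 or 10 μM at room temperature for 10 min, 30 min, 2 h or 24 h, then quenched with formic acid. Intact-protein LC-MS, deconvolved; percent modification from modified versus unmodified protein.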

For C=CC(=O)N1C[C@H](C)N(c2nc(N3CC(N(C)C)C3)nc3c(F)c(-c4c(C)ccc5onc(N)c45)c(Cl)cc23)C[C@H]1C [Compound 50, 1-((2R,5S)-4-(7-(3-amino-5-methylbenzo[d]isoxazol-4-yl)-6-chloro-2-(3-(dimethylamino)azetidin-1-yl)-8-fluoroquinazolin-4-yl)-2,5-dimethylpiperazin-1-yl)prop-2-en-1-one], which Binding % is on record?
Its Binding % is “+++ (+++ indicates binding activity greater than 80%)”.

For C=CC(=O)N1C[C@H](C)N(c2nc(N3CC(N(C)C)C3)nc3c(F)c(-c4c(C)ccc5nc(C)[nH]c45)c(Cl)cc23)C[C@H]1C [Compound 52, 1-((2R,5S)-4-(6-chloro-7-(2,6-dimethyl-1H-benzo[d]imidazol-7-yl)-2-(3-(dimethylamino)azetidin-1-yl)-8-fluoroquinazolin-4-yl)-2,5-dimethylpiperazin-1-yl)prop-2-en-1-one], which Binding % is on record?
Its Binding % is “++ (++ indicates binding activity from 50 to 80%)”.

How did the Binding % turn out when C=CC(=O)N1C[C@H](C)N(c2nc(N3CC(N(C)C)C3)nc3c(F)c(-c4c(C)cnc5[nH]ncc45)c(Cl)cc23)C[C@H]1C [Compound 56, 1-((2R,5S)-4-(6-chloro-2-(3-(dimethylamino)azetidin-1-yl)-8-fluoro-7-(5-methyl-1H-pyrazolo[3,4-b]pyridin-4-yl)quinazolin-4-yl)-2,5-dimethylpiperazin-1-yl)prop-2-en-1-one] was run?
The Binding % was “+ (+ indicates binding activity greater than 0% and up to 50%)”.

For C=CC(=O)N1C[C@H](C)N(c2nc(N3CC(N(C)C)C3)nc3c(F)c(-c4c(C)ccc5[nH]nc(C6CC6)c45)c(Cl)cc23)C[C@H]1C [Compound 57, 1-((2R,5S)-4-(6-chloro-7-(3-cyclopropyl-5-methyl-1H-indazol-4-yl)-2-(3-(dimethylamino)azetidin-1-yl)-8-fluoroquinazolin-4-yl)-2,5-dimethylpiperazin-1-yl)prop-2-en-1-one], which Binding % is on record?
Its Binding % is “+++ (+++ indicates binding activity greater than 80%)”.

Which Binding % does the source give for C=CC(=O)N1C[C@H](C)N(c2nc(NCCC(=O)N3CCCC3)nc3c(F)c(-c4c(C)ccc5[nH]nc(N)c45)c(Cl)cc23)C[C@H]1C [Compound 60, 1-((2R,5S)-4-(7-(3-amino-5-methyl-1H-indazol-4-yl)-6-chloro-8-fluoro-2-(3-oxo-3-(pyrrolidin-1-yl)propylamino)quina-zolin-4-yl)-2,5-dimethylpiperazin-1-yl)prop-2-en-1-one] here?
The Binding % was “+++ (+++ indicates binding activity greater than 80%)”.

How did the Binding % turn out when C=CC(=O)N1C[C@H](C)N(c2nc(N3CC(N(C)C)C3)nc3c(F)c(-c4c(C)ccc5[nH]nc(CC)c45)c(Cl)cc23)C[C@H]1C [Compound 61, 1-((2R,5S)-4-(6-chloro-2-(3-(dimethylamino)azetidin-1-yl)-7-(3-ethyl-5-methyl-1H-indazol-4-yl)-8-fluoroquinazolin-4-yl)-2,5-dimethylpiperazin-1-yl)prop-2-en-1-one] was run?
The Binding % was “+++ (+++ indicates binding activity greater than 80%)”.

Which Binding % does the source give for C=CC(=O)N1C[C@H](C)N(c2nc(NCCC(=O)N(C)C)nc3c(F)c(-c4c(C)ccc5[nH]nc(N)c45)c(Cl)cc23)C[C@H]1C [Compound 62, 3-(4-((2S,5R)-4-acryloyl-2,5-dimethylpiperazin-1-yl)-7-(3-amino-5-methyl-1H-indazol-4-yl)-6-chloro-8-fluoroquinazolin-2-ylamino)-N,N-dimethylpropanamide] here?
The Binding % was “+++ (+++ indicates binding activity greater than 80%)”.

Which Binding % does the source give for C=CC(=O)N1C[C@H](C)N(c2nc(NCCCN(C)C)nc3c(F)c(-c4c(C)ccc5[nH]nc(N)c45)c(Cl)cc23)C[C@H]1C [Compound 63, 1-((2R,5S)-4-(7-(3-amino-5-methyl-1H-indazol-4-yl)-6-chloro-2-(3-(dimethylamino)propyl-amino)-8-fluoroquinazolin-4-yl)-2,5-dimethylpiperazin-1-yl)prop-2-en-1-one] here?
The Binding % was “++ (++ indicates binding activity from 50 to 80%)”.

With C=CC(=O)N1C[C@H](C)N(c2nc(NCCC(=O)N(C)C)nc3c(F)c(-c4c(C)ccc5onc(N)c45)c(Cl)cc23)C[C@H]1C [Compound 64, 3-(4-((2S,5R)-4-acryloyl-2,5-dimethylpiperazin-1-yl)-7-(3-amino-5-methylbenzo[d]isoxa-zol-4-yl)-6-chloro-8-fluoroquinazolin-2-ylamino)-N,N-dimethylpropanamide] as the molecule, how does the Binding % read?
Its Binding % is “++ (++ indicates binding activity from 50 to 80%)”.

For C=CC(=O)N1C[C@H](C)N(c2nc(N3CC(N(C)C)C3)nc3c(F)c(-c4c(C)ccc5c(O)n[nH]c45)c(Cl)cc23)C[C@H]1C [Compound 65, 1-((2R,5S)-4-(6-chloro-2-(3-(dimethylamino)azetidin-1-yl)-8-fluoro-7-(3-hydroxy-6-methyl-1H-indazol-7-yl)quinazolin-4-yl)-2,5-dimethylpiperazin-1-yl)prop-2-en-1-one], which Binding % is on record?
The Binding % was “+ (+ indicates binding activity greater than 0% and up to 50%)”.

With C=CC(=O)N1C[C@H](C)N(c2nc(Nc3cnn(C)c3)nc3c(F)c(-c4c(C)ccc5[nH]nc(N)c45)c(Cl)cc23)C[C@H]1C [Compound 68, 1-((2R,5S)-4-(7-(3-amino-5-methyl-1H-indazol-4-yl)-6-chloro-8-fluoro-2-(1-methyl-1H-pyrazol-4-ylamino)quinazolin-4-yl)-2,5-dimethylpiperazin-1-yl)prop-2-en-1-one] as the molecule, how does the Binding % read?
Its Binding % is “+++ (+++ indicates binding activity greater than 80%)”.

C=CC(=O)N1C[C@H](C)N(c2nc(OCCCN(CC)CC)nc3c(F)c(-c4c(C)ccc5[nH]nc(N)c45)c(Cl)cc23)C[C@H]1C [Compound 69, 1-((2R,5S)-4-(7-(3-amino-5-methyl-1H-indazol-4-yl)-6-chloro-2-(3-(diethylamino)propoxy)-8-fluoroquinazolin-4-yl)-2,5-dimethylpiperazin-1-yl)prop-2-en-1-one] was tested. Which Binding % did it give?
Its Binding % is “+++ (+++ indicates binding activity greater than 80%)”.

C=CC(=O)N1C[C@H](C)N(c2nc(OCCN3CCC(F)CC3)nc3c(F)c(-c4c(C)ccc5[nH]nc(N)c45)c(Cl)cc23)C[C@H]1C [Compound 70, 1-((2R,5S)-4-(7-(3-amino-5-methyl-1H-indazol-4-yl)-6-chloro-8-fluoro-2-(2-(4-fluoropiperidin-1-yl)ethoxy)quinazolin-4-yl)-2,5-dimethylpiperazin-1-yl)prop-2-en-1-one] was tested. Which Binding % did it give?
The Binding % was “+++ (+++ indicates binding activity greater than 80%)”.

For C=CC(=O)N1C[C@H](C)N(c2nc(N3CC(N(C)C)C3)nc3c(F)c(-c4c(C)ccc5c(N)noc45)c(Cl)cc23)C[C@H]1C [Compound 71, 1-((2R,5S)-4-(7-(3-amino-6-methylbenzo[d]isoxazol-7-yl)-6-chloro-2-(3-(dimethylamino)azetidin-1-yl)-8-fluoroquinazolin-4-yl)-2,5-dimethylpiperazin-1-yl)prop-2-en-1-one], which Binding % is on record?
The Binding % was “+ (+ indicates binding activity greater than 0% and up to 50%)”.

Which Binding % does the source give for C=CC(=O)N1C[C@H](C)N(c2nc(NCCCN3CCOCC3)nc3c(F)c(-c4c(C)ccc5[nH]nc(N)c45)c(Cl)cc23)C[C@H]1C [Compound 72, 1-((2R,5S)-4-(7-(3-amino-5-methyl-1H-indazol-4-yl)-6-chloro-8-fluoro-2-(3-morpholinopropylami-no)quinazolin-4-yl)-2,5-dimethylpiperazin-1-yl)prop-2-en-1-one] here?
The Binding % was “+++ (+++ indicates binding activity greater than 80%)”.

How did the Binding % turn out when C=CC(=O)N1C[C@H](C)N(c2nc(NCCCN(C)C)nc3c(F)c(-c4c(C)ccc5onc(N)c45)c(Cl)cc23)C[C@H]1C [Compound 73, 1-((2R,5S)-4-(7-(3-amino-5-methylbenzo[d]isoxa-zol-4-yl)-6-chloro-2-(3-(dimethylamino)propyl-amino)-8-fluoroquinazolin-4-yl)-2,5-dimethylpiperazin-1-yl)prop-2-en-1-one] was run?
Its Binding % is “+ (+ indicates binding activity greater than 0% and up to 50%)”.

Which Binding % does the source give for C=CC(=O)N1C[C@H](C)N(c2nc(Nc3cnn(C)c3)nc3c(F)c(-c4c(C)ccc5onc(N)c45)c(Cl)cc23)C[C@H]1C [Compound 74, 1-((2R,5S)-4-(7-(3-amino-5-methylbenzo[d]osoxa-zol-4-yl)-6-chloro-8-fluoro-2-(1-methyl-1H-pyrazol-4-ylamino)quinazolin-4-yl)-2,5-dimethylpiperazin-1-yl)prop-2-en-1-one] here?
The Binding % was “+ (+ indicates binding activity greater than 0% and up to 50%)”.

C=CC(=O)N1C[C@H](C)N(c2nc(N3CC(N(C)C)C3)nc3c(F)c(-c4cncc5[nH]ncc45)c(Cl)cc23)C[C@H]1C [Compound 77, 1-((2R,5S)-4-(6-chloro-2-(3-(dimethylamino)azetidin-1-yl)-8-fluoro-7-(1H-pyrazolo[3,4-c]pyridin-4-yl)quinazolin-4-yl)-2,5-dimethylpiperazin-1-yl)prop-2-en-1-one] was tested. Which Binding % did it give?
The Binding % was “+ (+ indicates binding activity greater than 0% and up to 50%)”.

How did the Binding % turn out when C=CC(=O)N1C[C@H](C)N(c2nc(OCCN(CC)CC)nc3c(F)c(-c4c(C)ccc5[nH]nc(N)c45)c(Cl)cc23)C[C@H]1C [Compound 78, 1-((2R,5S)-4-(7-(3-amino-5-methyl-1H-indazol-4-yl)-6-chloro-2-(2-(diethylamino)ethoxy)-8-fluoroquinazolin-4-yl)-2,5-dimethylpiperazin-1-yl)prop-2-en-1-one] was run?
The Binding % was “+++ (+++ indicates binding activity greater than 80%)”.

With C=CC(=O)N1C[C@H](C)N(c2nc(NCCN3CCOCC3)nc3c(F)c(-c4c(C)ccc5[nH]nc(N)c45)c(Cl)cc23)C[C@H]1C [Compound 79, 1-((2R,5S)-4-(7-(3-amino-5-methyl-1H-indazol-4-yl)-6-chloro-8-fluoro-2-(2-morpholinoethylamino)quinazolin-4-yl)-2,5-dimethylpiperazin-1-yl)prop-2-en-1-one] as the molecule, how does the Binding % read?
The Binding % was “+++ (+++ indicates binding activity greater than 80%)”.
